Experimental data taken from patent US7011938B2, “Method of measuring platelet activation” (Barts and The London NHS Trust, priority 2000, dated 2006).
Several values for one entry are separate records, joined by “and”; a condition that tells them apart may be missing. Equal values may be shown once. Where a name gives a salt, the structure may show the parent alone.

What was measured:
[1] = system: platelets in whole blood; assay: Assessment of platelet activation on the ADVIA 120 (PLT, MPV, MPC, PCDW, MPM); type: cell-based, human; settings: for Platelet count in blood: CTAD and E/C corrected for dilution; for Platelet counts in blood: Example 3 Table 1, ambient temperature, mean of 7
Experimental: Assessment of platelet activation on the ADVIA 120. Whole blood samples were taken into Vacutainer™ containers (Becton Dickinson) containing either EDTA, CTAD, or a mixture of EDTA and CTAD (E/C). Samples were analysed immediately post-venesection and at timed intervals of 30, 60, 120, and 180 minutes post venesection. Analysis of platelet count (PLT), mean platelet volume (MPV), mean platelet component (MPC) and mean platelet component distributionwidth (PCDW) was performed using the ADVIA 120 Haematology System (Bayer Corporation, Tarrytown, N.Y.) calibrated prior to use with ADVIA TESTpoint Haematology Control reagents. (Bayer Corporation, Tarrytown, N.Y.).
Whole blood samples were taken into Vacutainer™ containers (Becton Dickinson) containing EDTA and mixed with the aforementioned platelet antagonists, or with CTAD (this mixture is referred to as E/C). Samples were analysed as in Example 1.
(§1) Whole blood samples were taken into Vacutainer™ containers that contained either K3EDTA, or CTAD, or a mixture of K3EDTA and CTAD (E/C). For the latter, blood was collected first into K3EDTA and then immediately transferred to a Vacutainer™ containing CTAD. Samples were held at ambient temperature, analysed immediately and at 30, 60, 120, and 180 min after venesection. Analysis of platelet count (PLT), mean platelet volume (MPV) and mean platelet component concentration (MPC) was done using the ADVIA®120 haematology system (Bayer Corporation, Tarrytown, N.Y.) Platelet counts made in blood anticoagulated with CTAD and E/C were corrected for dilution (dilution factors were 1.11 and 1.125 respectively). The system was calibrated and standardised prior to use with ADVIA®-SETpoint Haematology Control and ADVIA® OPTIpoint, respectively (Bayer Corporation). In one series of experiments (n=4) these analyses were performed on blood samples anticoagulated with E/C but held at ambient temperature and at 4° C. to investigate the effect of cooling on platelet activation.

[2] = system: platelets in whole blood; assay: Expression of CD62P on platelets by flow cytometry; type: cell-based, human; settings: for CD62P % expression in blood: Example 1, n=6, mean±se; for CD62P % positive platelets in blood: Example 3, at RT
Experimental: (§2) Measurement of the expression CD62P and the number of leucocyte platelet aggregates (PLAs). Anti-coagulated blood (5 μl) was incubated at room temperature with either FITC CD62P (5 μl) or FITC isotype control (5 μl), or PE CD45 (5 μl) and FITC isotype control (5 μl) or FITC CD42a (5 μl) and PE CD45 (5 μl), in 90 μl of TS for 5 min. Samples were diluted to 1 ml with TS and analysed immediately by flow cytometry.
(§3) Flow cytometry. Blood cells were analysed on a FACScan (Becton Dickinson, Oxford, UK) equipped with CellQuest® software. The flow cytometer was calibrated prior to use with fluorochrome labelled beads (Fluorospheres™, Dako).
For the analysis of CD62P expression data was acquired in real time with a primary gate set on a dual parameter histogram of forward light scatter (FLS) logarithmic scale (abscissa) and side light scatter (SLS) logarithmic scale (ordinate). This facilitated identification of the platelets within the blood and was confirmed by the analysis of CD42a expression (FIG. 1). Background fluorescence was assessed with platelets labelled with the FITC conjugated isotype control antibody. Cursors were set in a single parameter histogram of frequency (ordinate) and green fluorescence intensity (abscissa), so that less than 1% of the platelets stained positively with the control antibody. Changes in CD62P expression (green fluorescence logarithmic scale), together with those of FLS and SLS, were then recorded on the gated platelets.

[3] = system: platelet leucocyte aggregates in whole blood; assay: Platelet-leucocyte aggregates (PLAs) by flow cytometry; type: cell-based, human
Experimental: as §2, §3
For the analysis of platelet-leucocyte aggregates (FIG. 2), cells were analysed in a histogram of side scatter (logarithmic scale ordinate) and orange fluorescence (logarithmic scale abscissa). Leucocytes identified by their positive staining with PE CD45 were gated to a histogram of green fluorescence (logarithmic scale ordinate) and orange fluorescence (logarithmic scale abscissa). Events that were both green and orange were considered platelet leucocyte aggregates and recorded as a percentage of a total of 10,000 gated leucocytes.
As Example 1. Platelet-leucocyte aggregates could then be gated to a histogram (C) of side scatter (logarithmic scale ordinate) and orange fluorescence (logarithmic scale abscissa) to identify, by their characteristic SLS, which leucocytes were forming PLAs.

[4] = system: whole blood; assay: Comparison of ADVIA 120 haematology results in anticoagulated blood; type: cell-based, human; settings: Table 2, Mean (+/-S.E.) at 30 minutes, 7 control samples
Experimental: as §1

[5] = system: platelets; settings: room temperature; on average; Threatte et al., 1984; cited from earlier work
[6] = system: platelets; settings: over a period of 1–2 h; impedance procedures; depends on sodium citrate concentration; cited from earlier work
[7] = Example 1, 30 min, n=6, mean±se
[8] = Example 1, 60 min, n=6, mean±se
[9] = Example 1, 120 min, n=6, mean±se
[10] = Example 1, 180 min, n=6, mean±se

## O=C(O)CN(CCN(CC(=O)O)CC(=O)O)CC(=O)O [EDTA, Ethylenediaminetetra-acetic acid]
[1]; Example 1, 0 min, n=6
  Platelet count in blood: 235±12
[1]; Example 1, 0 min, n=6, mean±se
  MPC in blood: 28.0 ± 0.87 g/dL
  MPV in blood: 8.0 ± 0.37 fL
  PCDW in blood: 5.85 ± 0.28 g/dL
[1]; Example 1, 30 min, n=6
  Platelet count in blood: 246 ± 14
[1]; [7]
  MPC in blood: 29.1 ± 0.52 g/dL
  MPV in blood: 7.7 ± 0.27 fL
  PCDW in blood: 5.00 ± 0.09 g/dL
[1]; Example 1, 60 min, n=6
  Platelet count in blood: 249 ± 14
[1]; [8]
  MPC in blood: 28.8 ± 0.42 g/dL
  MPV in blood: 7.7 ± 0.24 fL
  PCDW in blood: 5.00 ± 0.12 g/dL
[1]; Example 1, 120 min, n=6
  Platelet count in blood: 247 ± 14
[1]; [9]
  MPC in blood: 27.9 ± 0.48 g/dL
  MPV in blood: 8.0 ± 0.30 fL
  PCDW in blood: 4.80 ± 0.11 g/dL
[1]; Example 1, 180 min, n=6
  Platelet count in blood: 246 ± 5
[1]; [10]
  MPC in blood: 27.1 ± 0.36 g/dL
  MPV in blood: 8.1 ± 0.21 fL
  PCDW in blood: 4.80 ± 0.08 g/dL and 4.80 ± 0.06 g/dL
[1]; Example 3, at RT, 0 min
  MPC in blood: 2.8e-12 ± 8.7e-14 g/dL
  MPV in blood: 8.0 ± 0.37 fL
[1]; Example 3, at RT, 30 min
  MPC in blood: 2.91e-12 ± 5.2e-14 g/dL
  MPV in blood: 7.7 ± 0.27 fL
[1]; Example 3, at RT, 60 min
  MPC in blood: 2.88e-12 ± 4.2e-14 g/dL
  MPV in blood: 7.7 ± 0.24 fL
[1]; Example 3, at RT, 120 min
  MPC in blood: 2.79e-12 ± 4.8e-14 g/dL
  MPV in blood: 8.0 ± 0.30 fL
[1]; Example 3, at RT, 180 min
  MPC in blood: 2.71e-12 ± 3.6e-14 g/dL
  MPV in blood: 8.1 ± 0.21 fL
[1]; 0 min
  Platelet counts in blood: 235 ± 13
[1]; 30 min
  Platelet counts in blood: 246 ± 14
[1]; 180 min
  Platelet counts in blood: 246 ± 5
[2]; 0 min post venesection
  CD62P % expression in blood: 1.10 ± 0.24%
[2]; 30 min
  CD62P % expression in blood: 3.71 ± .04%
  CD62P % positive platelets in blood: 3.71 ± 1.04%
[2]; 60 min
  CD62P % expression in blood: 11.27 ± .60%
  CD62P % positive platelets in blood: 11.27 ± 1.60%
[2]; 120 min
  CD62P % expression in blood: 18.94 ± 2.53%
  CD62P % positive platelets in blood: 18.94 ± 2.53%
[2]; 180 min
  CD62P % expression in blood: 23.05±2.79%
  CD62P % positive platelets in blood: 23.05 ± 2.79%
[2]; 0 min
  CD62P % positive platelets in blood: 1.10 ± 0.24%
[2]; 0 min, listed as K3EDTA
  CD62P % positive platelets in blood: 1.10±0.61%
[2]; 180 min, listed as K3EDTA
  CD62P % positive platelets in blood: 23.05±1.54%
[3]; Example 1, 0 min, n=6, mean±se
  % platelet leucocyte aggregates in blood: 3.50±0.50%
[3]; [7]
  % platelet leucocyte aggregates in blood: 4.16 ± 0.86%
[3]; [8]
  % platelet leucocyte aggregates in blood: 8.87 ± 1.54%
[3]; [9]
  % platelet leucocyte aggregates in blood: 8.50 ± 1.44%
[3]; [10]
  % platelet leucocyte aggregates in blood: 13.50±2.41%
[3]; Example 3, at RT, 0 min
  % platelet leucocyte aggregates in blood: 3.30 ± 0.5%
[3]; Example 3, at RT, 0 min, listed as K3EDTA
  % platelet leucocyte aggregates in blood: 3.50±0.71%
[3]; Example 3, at RT, 30 min
  % platelet leucocyte aggregates in blood: 4.16 ± 0.86%
[3]; Example 3, at RT, 60 min
  % platelet leucocyte aggregates in blood: 8.87 ± 1.54%
[3]; Example 3, at RT, 120 min
  % platelet leucocyte aggregates in blood: 8.50 ± .44%
[3]; Example 3, at RT, 180 min
  % platelet leucocyte aggregates in blood: 13.50 ± 1.74%
[3]; Example 3, at RT, 180 min, listed as K3EDTA
  % platelet leucocyte aggregates in blood: 13.50±1.74%
[4]
  MPC: 29.1 (0.52) g/dL
  MPV: 7.7 (0.27) fL
  PCDW: 5.00 (0.09) g/dL
  PCT: 0.19 (0.01) %
  PDW: 58.9 (3.24) %
[4]; CTAD ×1.11, E/C ×1.125
  PLT: 246 (14) 109/L
[5]
  MPV greater than in corresponding citrate anticoagulated blood: 23%

## O=C(O)CC(O)(CC(=O)O)C(=O)O [citrate, trisodium citrate]
[6]
  increase in platelet volume: 3–10%
